The text below walks through data of US9440913B2, “Dihydroxybenzene derivatives and antiprotozoal agent comprising same as active ingredient” (NAI INC., priority 2010, dated 2016).

The test system of data set [1] is glycerol-3-phosphate-dependent respiration. As to conditions: mitochondrial specimen of T. brucei brucei multiplied in the rat bloodstream; cited from earlier work.
Data set [2] has as its target T1, recombinant Trypanosome AOX (TAO) enzyme (Trypanosoma brucei brucei, UniProt Q26710).
T1 construct: made in house; host or cells: Escherichia coli (membrane fraction)
Kind of data set: TAO enzyme inhibition (quinol oxidase activity, ubiquinol-1 substrate). The class given is biochemical, T. brucei brucei. As to conditions: TAO-expressing E. coli membrane fraction, 25° C., ubiquinol-1, absorbance at 278 nm. The method in brief:
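E. coli membranes expressing T. brucei brucei TAO (0.35 ng) pre-incubated with inhibitor in 50 mM Tris-HCl pH 7.5, 4 min at 25 °C. Reaction started with ubiquinol-1; quinol oxidation followed as absorbance change at 278 nm.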

The subject of another data set is T. b. rhodesiense IL1501. Kind of data set: Antiprotozoal effect, MIC measurement in HMI-9 culture. The class given is cell-based. The settings on record: Trypanosoma brucei, RHODESIENSE, 24 h, bloodstream forms, 18 + 6 hours culture. The method in brief:
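Bloodstream-form T. b. rhodesiense IL1501 were grown in HMI-9 medium at 37° C. with 5% CO2. Three-fold serial drug dilutions from DMSO stocks were made in 96-well plates in HMI-9, with or without glycerol (final 5 mM), and 5×10^4 cells/well added. After 18 hours plus 6 more hours of culture, wells were checked by microscope; MIC was the lowest concentration showing no motile survivors.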

The subject of the next data set is T. b. rhodesiense. Briefly: Treatment of mice infected with T. b. rhodesiense (cure and survival). As to conditions: for Cured/Infected: i.p., five doses at 6 hour interval. The class given is in vivo. The procedure:
Mice were infected with T. b. rhodesiense, a protozoan that causes acute symptoms at 1×10^3 cells/mouse, administration of medication in mice was started 24 hours after the infection, and the mice received five doses of each drug at the dosing interval of 6 hours. Mice were all infected and treated intraperitoneally (i.p). Mice that have no Trypanosomatid protozoan in the blood and survive even 60 days or more after the end of treatment were determined to be cured. Survival days represents an average survival time after treatment in mice that died from infection; therefore, survival days for the group of cured mice are not described in Table 2.

Data set [3] deals with Cryptosporidium cyanide insensitive oxidase (AOX), recombinant protein (cCpAOX) (Cryptosporidium parvum, UniProt Q761U6). Briefly: CpAOX enzyme inhibition. The class given is biochemical. From the text:
Cryptosporidium has found to have cyanide insensitive oxidase (AOX), and its inhibitory activity was observed using its recombinant protein (cCpAOX) produced in E. coli.

Where [4] appears, read: Glycerol (+), final concentration of glycerol of 5 mM.

T1 sequence (Q26710 whole entry): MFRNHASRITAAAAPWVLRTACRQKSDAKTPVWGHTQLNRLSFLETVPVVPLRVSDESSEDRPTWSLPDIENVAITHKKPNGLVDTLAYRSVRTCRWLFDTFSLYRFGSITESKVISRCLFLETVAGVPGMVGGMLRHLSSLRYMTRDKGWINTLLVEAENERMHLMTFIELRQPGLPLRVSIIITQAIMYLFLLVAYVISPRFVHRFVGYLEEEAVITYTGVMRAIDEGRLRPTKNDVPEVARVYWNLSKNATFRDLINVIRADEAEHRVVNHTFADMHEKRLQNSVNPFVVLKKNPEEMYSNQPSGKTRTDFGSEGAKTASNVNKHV
Sequence of Cryptosporidium cyanide insensitive oxidase (AOX), recombinant protein (cCpAOX) (Q761U6 entry or part of it): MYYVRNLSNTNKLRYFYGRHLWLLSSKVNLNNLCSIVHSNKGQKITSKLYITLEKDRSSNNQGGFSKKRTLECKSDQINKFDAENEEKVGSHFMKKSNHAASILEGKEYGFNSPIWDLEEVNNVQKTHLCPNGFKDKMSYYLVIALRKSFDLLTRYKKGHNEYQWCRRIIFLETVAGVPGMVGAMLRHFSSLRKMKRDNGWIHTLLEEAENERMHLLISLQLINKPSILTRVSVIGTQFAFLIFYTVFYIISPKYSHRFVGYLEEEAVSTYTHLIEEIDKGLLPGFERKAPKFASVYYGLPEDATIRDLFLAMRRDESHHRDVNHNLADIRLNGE

As for `CCCC[C@H]1C(=O)O[C@H](C)[C@H](NC(=O)c2cccc(NC=O)c2O)C(=O)O[C@@H](C)[C@@H]1OC(=O)CC(C)C` [Antimycin A3], in data set [1], the “absolute amounts of 50% inhibition” value is recorded as 48,600 pmol/mg protein.
Take `C/C(=C\Cc1c(O)c(Cl)c(C)c(C=O)c1O)CC/C=C(\C)COC(=O)C(C)(C)C` [Compound 234-12-OPiv, (2E,6E)-8-(3-Chloro-5-formyl-2,6-dihydroxy-4-methylphenyl)-2,6-dimethyl-2,6-octadienyl pivalate]: in data set [2], the IC50 (in general, the midpoint of a concentration-inhibition curve) amounted to 0.4 nM. For the same compound, the minimal inhibitory concentration (MIC) (commonly the lowest concentration found to suppress growth) in the data set on T. b. rhodesiense IL1501 (setting [4]) amounted to 0.031 nM; with T. b. rhodesiense IL1501 (Glycerol (−)) it was 0.39 nM. Also, the Cured/Infected in the data set on T. b. rhodesiense (Glycerol dose 1.25 g/kg) is reported as 5/5.
For the compound `C/C(=C\Cc1c(O)c(Cl)c(C)c(C=O)c1O)CC/C=C(\C)C(C)O` (centres unmarked) [Compound 277-9-OH], the IC50 turned out to be 0.48 nM in data set [2] and 2.5 nM in data set [3]. Moreover, the MIC in the data set with T. b. rhodesiense IL1501 (setting [4]) was found to be 0.048 nM; with T. b. rhodesiense IL1501 (Glycerol (−)), 74 nM. In addition, the Cured/Infected in the data set on T. b. rhodesiense (Glycerol dose 1.25 g/kg) is given as 4/4.
In the case of `CO/C(=C/C(N)=O)[C@H](C)[C@H](/C=C/c1csc(-c2csc([C@@H](C)/C=C/C=C/C(C)C)n2)n1)OC` [myxothiazol], the “absolute amounts of 50% inhibition” value in data set [1] is given as 21,500 pmol/mg protein.
For the compound `C/C(=C\Cc1c(O)c(Cl)c(C)c(C=O)c1O)CC/C=C(\C)[C@@H]1CC(=O)C(C)(C)O1` (racemic) [Ascofuranone, dl-5-Chloro-2,4-dihydroxy-6-methyl-3-[(2E,6E)-3-methyl-7-(3,3-dimethyl-4-oxo-2-oxacyclopentyl)-2,6-octadienyl]benzaldehyde], the Survival days in the data set on T. b. rhodesiense (Glycerol dose 0, average survival time after treatment in mice that died from infection) is 12 days; in the data set on T. b. rhodesiense (Glycerol dose 50 mg/kg, average survival time of mice that died from infection), 12 days; with T. b. rhodesiense (Glycerol dose 750 mg/kg, average survival time of mice that died from infection), 21 days. Besides, the Cured/Infected in the data set with T. b. rhodesiense (Glycerol dose 0, start 24 hours after infection, cured = no protozoan in blood and survival 60 days or more) is 0/5; in the data set on T. b. rhodesiense (Glycerol dose 50 mg/kg) it was 0/5; in the data set with T. b. rhodesiense (Glycerol dose 750 mg/kg), 2/3; with T. b. rhodesiense (Glycerol dose 1.25 g/kg), 5/5. The “absolute amounts of 50% inhibition” value in data set [1] is recorded as 25 pmol/mg protein.
Regarding `Cc1c(Cl)c(O)c(CCCCCCCCOC(=O)C(C)(C)C)c(O)c1C=O` [Compound 215-12-OPiv, 8-(3-Chloro-5-formyl-2,6-dihydroxy-4-methylphenyl)octyl pivalate], the melting point (as a rule, the temperature, or range, at which the solid turns liquid) is 70 to 71 °C. Further, the IC50 in data set [2] was 0.32 nM. In the data set on T. b. rhodesiense IL1501 (setting [4]), the MIC is 0.49 nM. Moreover, the MIC in the data set with T. b. rhodesiense IL1501 (Glycerol (−)) was determined as 1.9 nM. Moreover, the IC50 in data set [3] stood at 2.7 nM.
As to `CC(=O)OC(C)/C(C)=C/CC/C(C)=C/Cc1c(O)c(Cl)c(C)c(C=O)c1O` (centres unmarked) [Compound 277-11-OAc, (3E,7E)-9-(3-Chloro-5-formyl-2,6-dihydroxy-4-methyl)phenyl-3,7-dimethyl-3,7-nonadie2-yl acetate], the results for the half-maximal inhibitory concentration (IC50) in data set [2] and in data set [3] were 1.2 nM and 1.5 nM, respectively. Besides, the results for the MIC in the data set with T. b. rhodesiense IL1501 (setting [4]) and in the data set with T. b. rhodesiense IL1501 (Glycerol (−)) were 0.082 nM and 2.3 nM, respectively. Further, in the data set with T. b. rhodesiense (Glycerol dose 1.25 g/kg), the Cured/Infected is 4/4.
`CCC(=O)OCCCCCCCCCc1c(O)c(Cl)c(C)c(C=O)c1O` [Compound 215-13-OCOEt, 9-(3-Chloro-5-formyl-2,6-dihydroxy-4-methylphenyl)nonyl propionate]: the melting point fell in the range of 69 to 70 °C. Also, the IC50 in data set [2] was found to be 0.2 nM. In the data set on T. b. rhodesiense IL1501 (setting [4]), the MIC was found to be 7.1 nM. Also, in the data set on T. b. rhodesiense IL1501 (Glycerol (−)), the MIC was determined as 125 nM. The IC50 in data set [3] amounted to 2.1 nM.
In the same order, the values of `CC(=O)/C(C)=C/CC/C(C)=C/Cc1c(O)c(Cl)c(C)c(C=O)c1O` [Compound 276-9] are 119 to 120 °C, 1.2 nM, 0.53 nM, 13 nM and 2.1 nM.
In the same order, the values of `Cc1c(Cl)c(O)c(CCCCCCCCCC(=O)OCC2COC(C)(C)O2)c(O)c1C=O` (centres unmarked) [Compound 502-16-G, 2,2-Dimethyl-1,3-dioxolanee-4-methyl 10-(3-chloro-5-formyl-2,6-dihydroxy-4-methylphenyl)decanoate] are 55 to 56 °C, 0.3 nM, 1.2 nM, 12 nM and 2.3 nM.
In the same order, the values of `Cc1c(Cl)c(O)c(CCCCCCCOC(=O)C(C)(C)C)c(O)c1C=O` [Compound 215-11-OPiv, 7-(3-Chloro-5-formyl-2,6-dihydroxy-4-methylphenyl)heptyl pivalate] are 63 to 64 °C, 0.25 nM, 0.094 nM, 0.88 nM and 1.4 nM.
Take `C/C=C(C)/C=C/C=C/[C@H](OC)[C@@H](C)[C@@H](OC)[C@@H](C)CCc1oc2c(O)c(OC)cc(OC)c2c(=O)c1C` [stigmatellin]: in data set [1], the “absolute amounts of 50% inhibition” value is given as 18,600 pmol/mg protein.
